Experimental data taken from patent US4990613A, “(1R,5S,6S)-2-[(6,7-dih ydro-5H-pyrazolo[1,2-a][1,2,4]triazolium-6-yl)]thio-6-[R-1-hydroxyethyl]- 1-methyl-carbapenem-3-carboxylate and intermediate therefor” (Lederle (Japan), Ltd., priority 1987, dated 1991).
Values after ≈ are worked out from the molar mass of the structure shown. Like-named read-outs stand apart in the source and are kept apart here.

Assays:
[1] = test system: Citrobactor freundii GN 346; test: Antibacterial activity against clinically isolated β-lactamase producing strains; format: cell-based; details: cephalosporinase producing strain, 18 to 20 hours; read-out: MIC
Description: (§1) A solution of a cephalosporinase producing strain stored by Episome Research Institute, which was prepared by incubating the strain in a sensitivity test broth (STB; product of Nissui K.K.) for 18 hours, was diluted with a fresh STB solution to contain 10^5 cells per milliliter and the diluted solution was then inoculated as spots with a microplanter on a sensitivity disk agar-N (SDA; product of Nissui K.K.) containing a test compound. The disk agar was then incubated for 18 to 20 hours. A minimum inhibitory concentration was determined as a minimum concentration in which the test microorganism had no longer grown after a 18 to 20 hour incubation.

[2] = test system: Citrobactor freundii GN 7391; test: as above; format: cell-based; details: cephalosporinase producing strain, 18 to 20 hours; read-out: MIC
Description: as §1

[3] = test system: Escherichia coli No. 1501; test: as above; format: cell-based; details: Escherichia coli, NO.1501; cephalosporinase producing strain, 18 to 20 hours; read-out: MIC
Description: as §1

Proteus morganii GN 5407 = test: as above; format: cell-based; details: Morganella morganii, GN5407
Description: as §1

Proteus vulgaris GN 4413 = test: as above; format: cell-based; details: Proteus vulgaris, GN4413
Description: as §1

[4] = test system: Pseudomonas cepacia GN 11164; test: as above; format: cell-based; details: Burkholderia cepacia, GN11164
Description: as §1

[5] = test system: Staphylococcus aureus FDA 209P JC-1; test: Antibacterial test, agar plate dilution method; details: Staphylococcus aureus, FDA209P, 18 h
[6] = test system: Bacillus subtilis ATCC6633; test: Antibacterial test, agar plate dilution method; details: Bacillus subtilis, ATCC6633, 18 h
[7] = test system: Enterobacter aerougenes ATCC13048; test: Antibacterial test, agar plate dilution method; details: Enterobacter, ATCC13048, 18 h
[8] = test system: Pseudomonas aeruginosa NCTC 10490; test: Antibacterial test, agar plate dilution method; details: Pseudomonas aeruginosa, NCTC10490, 18 h
[9] = test system: Enterobacter cloacae GN 7471; test: Antibacterial activity against clinically isolated β-lactamase producing strains; format: cell-based; details: Enterobacter cloacae, GN7471; cephalosporinase producing strain, 18 to 20 hours; read-out: MIC
Description: as §1

[10] = test system: Pseudomonas aeruginosa GN 918; test: as above; format: cell-based; details: Pseudomonas aeruginosa, GN918; cephalosporinase producing strain, 18 to 20 hours; read-out: MIC
Description: as §1

[11] = test system: P. aeruginosa resistant strains; test: Sensitivity test against clinical isolates, P. aeruginosa resistant strains; format: cell-based; details: 54 resistant strains
Description: It is noted here that the 54 strains have been chosen because there have been the strains in duplicate with the agents. ______________________________________ Ceftazidime (CAZ) (25 to 100 μg/ml) 21 strains Cefsulodine (CFS) (25 to >100 μg/ml) 23 strains Piperacilin (PIPC) (25 to >100 μg/ml) 15 strains Gentamycin (GM) (25 to >100 μg/ml) 21 strains Amikacin (AMK) (25 to >100 μg/ml) 26 strains Ofloxacin (OFLX) (25 to >100 μg/ml) 4 strains ______________________________________
A minimum inhibitory concentration (MIC) was determined in substantially the same manner as the test procedures II above using the 54 strains of P. aeruginosa having an anti-Pseudomonas resistance.

[12] = test system: C. freundii resistant strains; test: Sensitivity test against clinical isolates, C. freundii resistant strains; format: cell-based; details: CFIX/CTX resistant strains
Description: Cefixime (CFIX) (50 to >100 μg/ml)
Cefotaxime (CTX) (50 to >100 μg/ml)
The tests were carried out in the same manner as described above Test 1.

[13] = test system: Swine Kidney Dehydropeptidase-I (DHP-I); test: Hydrolysis activity against DHP-I enzyme substrate by late assay; format: in vitro ADME; details: final substrate concentration 100 μM, 10 minutes, pH 7.1
Description: (§2) The swine kidney (8 kg) was homogenized and an enzyme protein was allowed to precipitate. After a connective lipid was removed with acetone, the resultant material was made soluble by treatment with butanol and purified in the order by the ammonium sulfate fraction method, thereby producing DPH-I enzyme from a 75% ammonium sulfate fraction.
(§3) The DHP-I enzyme was then adjusted to give an enzyme concentration of 25 mg/10 ml (phosphate buffer, pH 7.1), and divided into 1 ml portions. The portions were frozen and stored at -40° C. or less until use.
(§4) As control compounds were employed glycyl dehydrophenylalanine (Gl-dh-Ph) and imipenem, and they were adjusted in situ each to give the concentration of 177 μM with the same sodium phosphate buffer solution.
To 1.2 ml of a 50 mM sodium phosphate buffer solution (substrate) containing 177 μM of each of Gh-dh-Ph and imipenem as the control compounds was added 0.2 ml of the DHP-I enzyme solution (25 mg/10 ml) prepared above in the final substrate concentration of 100 μM. The solution was then incubated at […] for 10 minutes. An initial velocity of hydrolysis of the substrate was measured from a decrease in absorbency at a particular λmax of each of the substrates.
A blank test was conducted in substantially the same manner as above by adding 0.2 ml of the sodium phosphate buffer solution (pH 7.1) to 1.2 ml of the above substrate.

[14] = test system: Swine Kidney Dehydropeptidase-I (DHP-I); test: Stability of test compounds against DHP-I by HPLC; format: in vitro ADME
Description: as §2, §3
As a test compound was used the compound (15) obtained in Example 6 that follows.
The test compounds was adjusted in situ to give the concentration of […] with a 50 mM sodium phosphate buffer solution (pH=7.1).
as §4
The test compound according to the present invention and the control compounds have been treated in substantially the same manner as (1) above. The incubation, however, was conducted at 37° C. for 4.5 hours or for 24 hours. A degree of the hydrolysis of the compounds each after the test periods of time was measured by the HPLC method.

[15] = test system: Proteus mirabilis IFO3849; test: Antibacterial test, agar plate dilution method; details: Proteus mirabilis, IFO3849, 18 h
Proteus vulgaris OX-19 = test: Antibacterial test, agar plate dilution method; details: Proteus vulgaris, OX19, 18 h
[16] = cephalosporinase producing strain, 18 to 20 hours, read-out: MIC

`Cc1nnc(SCC2=C(C(=O)O)N3C(=O)[C@@H](NC(=O)Cn4cnnn4)[C@H]3SC2)s1` [CEZ] was tested, and the MIC [1] was 25 µg/mL (≈ 55 µM), the MIC [2] was > 100 µg/mL and the MIC [3] was 0.2 µg/mL (≈ 0.44 µM). It also gave an MIC (Proteus morganii GN 5407; [16]) of 0.39 µg/mL (≈ 0.858 µM), an MIC (Proteus vulgaris GN 4413; [16]) of 0.2 µg/mL (≈ 0.44 µM) and an MIC [4, 16] of 0.78 µg/mL (≈ 1.72 µM). The MIC [5] was 0.2 µg/mL (≈ 0.44 µM), the MIC [6] was 0.1 µg/mL (≈ 0.22 µM) and the MIC [7] was > 100 µg/mL. The MIC [8] was > 100 µg/mL.
For `C[C@@H](O)[C@H]1C(=O)N2C(C(=O)O)=C(SCCN=CN)C[C@H]12` [Imipenem], the MIC [1] was 0.39 µg/mL (≈ 1.3 µM), the MIC [2] was 0.78 µg/mL (≈ 2.61 µM) and the MIC [9] was 0.2 µg/mL (≈ 0.668 µM). The MIC [3] was 0.1 µg/mL (≈ 0.334 µM), the MIC (Proteus morganii GN 5407) was 3.13 µg/mL (≈ 10.5 µM) and the MIC (Proteus vulgaris GN 4413) was 6.25 µg/mL (≈ 20.9 µM). The MIC [10] was 0.78 µg/mL (≈ 2.61 µM), the MIC [4] was 3.13 µg/mL (≈ 10.5 µM) and the “test microorganisms whose growth is inhibited” value ([11]; concentration of 12.5 μg/ml) was “all the test microorganism”. For the same compound, the “test microorganisms whose growth is inhibited” value ([11]; concentration of […]) was “approximately 98%”, the “test microorganisms whose growth is inhibited” value ([12]; concentration of 0.78 μg/ml) was “approximately 90%” and the “test microorganisms whose growth is inhibited” value ([12]; concentration of 1.56 μg/ml) was “all the test microorganisms”. For the same compound, the “initial velocity of hydrolysis against DHP-I” value [13] was 0.56 µM/min, the “Degree of hydrolysis by DHP-I” value ([14]; 37° C. 4.5 hours, substrate concentration 100 μM, HPLC) was 77.6 µM and the “Degree of hydrolysis by DHP-I (in words)” value ([14]; after 24 hours at 37° C., footnote * of Table 3) was “imipenem has been decomposed and nothing remained was detected”. For the same compound, the MIC [5] was 0.025 µg/mL (≈ 0.0835 µM), the MIC [6] was 0.025 µg/mL (≈ 0.0835 µM) and the MIC [7] was 0.2 µg/mL (≈ 0.668 µM). For the same compound, the MIC [15] was 6.25 µg/mL (≈ 20.9 µM), the MIC (Proteus vulgaris OX-19) was 0.78 µg/mL (≈ 2.61 µM) and the MIC [8] was 0.78 µg/mL (≈ 2.61 µM).
